Square brackets hold non-standard residues; d marks the D form. Peptide text beside a SMILES is read from it.
How the values were obtained:
Bacillus megaterium Bm11 = format: cell-based; details: 100% inhibition of growth after 18–20 h
[1] = test system: human red blood cells (hRBC); assay: Hemolysis of human red blood cells; format: cell-based
Protocol: (ix) Hemolysis of human red blood cells. The peptides were tested for their hemolytic activities against human red blood cells (hRBC). Fresh hRBC with EDTA were rinsed 3 times with PBS (35 mM phosphate buffer/0.15 M NaCl, pH 7.3) by centrifugation for 10 min at 800 g and resuspended in PBS. Peptides dissolved in PBS were then added to 50 μL of a solution of the stock hRBC in PBS to reach a final volume of 100 μL (final erythrocyte concentration, 5% v/v). The resulting suspension was incubated under agitation for 30 min at 37° C. The samples were then centrifuged at 800 g for 10 min. Release of hemoglobin was monitored by measuring the absorbance of the supernatant at 540 nm. Controls for zero hemolysis (blank) and 100% hemolysis consisted of hRBC suspended in PBS and Triton 1%, respectively.

Escherichia coli D21 = format: cell-based; details: for Minimal Inhibitory Concentration E. coli (D21): 100% inhibition of growth after 18–20 h
[2] = test system: Acinetobacter calcoaceticus Ac11; format: cell-based; details: 100% inhibition of growth after 18–20 h
[3] = test system: Micrococcus Iuteus ATCC 9341; assay: Antibacterial activity (MIC), growth inhibition in LB medium; format: cell-based, Micrococcus luteus; details: 100% inhibition of growth after 18–20 h
Protocol: (viii) Antibacterial activity of the peptides. The antibacterial activity of the diastereomers was examined in sterile 96-well plates (Nunc F96 microtiter plates) in a final volume of 100 μL as follows: Aliquots (50 μl) of a suspension containing bacteria at a concentration of 10^6 Colony-Forming Units (CFU)/ml LB (Lauria broth) medium were added to 50 μL of water or 66% pooled normal human serum in PBS, containing the peptide in 2-fold serial dilutions. Growth inhibition was determined by measuring the absorbance at 492 nm with a Microplate autoreader E1309 (Bio-tek Instruments), following incubation for 18–20 h at 37° C. […] The bacteria used were: Escherichia coli D21, Pseudomonas aeruginosa ATCC 27853, Acinetobacter calcoaceticus Ac11, Salmonella typhimurium LT2, Bacillus megaterium Bm11, Micrococcus Iuteus ATCC 9341, Bacillus subtilis ATCC 6051.

[4] = test system: Pseudomonas aeruginosa ATCC 27853; details: for Minimal Inhibitory Concentration P. aeruginosa (ATCC 27853): 100% inhibition of growth after 18–20 h
Protocol: (viii) Antibacterial activity of the peptides.
Antibacterial activity of the mixtures was determined as described in Experimental procedures, section (xii).

[5] = test system: Bacillus subtilis ATCC 6051; format: cell-based; details: 100% inhibition of growth after 18–20 h

Row | SMILES | Minimal Inhibitory Concentration B. megaterium (Bm11) (Bacillus megaterium Bm11) | % hemolysis at 50 μM peptide ([1]; hRBC, 50 μM peptide, 30 min at 37° C.) | Minimal Inhibitory Concentration E. coli (D21) (Escherichia coli D21) | Minimal Inhibitory Concentration A. calcoaceticus (Ac11) [2] | Minimal Inhibitory Concentration M. luteus (ATCC 9341) [3] | hemolytic activity in comparison to melittin (fold less) ([1]; hRBC dose response) | % hemolysis at 100 μM ([1]; hRBC, 30 min at 37° C.) | Minimal Inhibitory Concentration P. aeruginosa (ATCC 27853) [4] | Minimal Inhibitory Concentration B. subtilis (ATCC 6051) [5] | Minimal Inhibitory Concentration P. aeruginosa (ATCC-27853) 0% Serum ([4]; 0% Serum) | Minimal Inhibitory Concentration P. aeruginosa (ATCC-27853) 33% Serum ([4]; 33% pooled human serum) | Minimal Inhibitory Concentration E. coli (D21) 0% Serum (Escherichia coli D21; 0% Serum) | Minimal Inhibitory Concentration E. coli (D21) 33% Serum (Escherichia coli D21; 33% pooled human serum)
1 | CC[C@@H](C)[C@@H](NC(=O)[C@H](CC(C)C)NC(=O)[C@H](C)NC(=O)[C@@H]1CCCN1C(=O)[C@H](CC(C)C)NC(=O)CNC(=O)[C@@H](NC(=O)[C@@H](NC(=O)[C@H](CC(C)C)NC(=O)[C@H](NC(=O)[C@H](CCCCN)NC(=O)[C@H](CC(C)C)NC(=O)[C@H](NC(=O)[C@H](C)N)C(C)C)C(C)C)[C@@H](C)O)[C@@H](C)O)C(=O)N[C@@H](CO)C(=O)N[C@@H](Cc1c[nH]c2ccccc12)C(=O)N[C@H](C(=O)N[C@H](CCCCN)C(=O)N[C@@H](CCCNC(=N)N)C(=O)NCCN)[C@@H](C)CC [Peptide 21, [D]-V^5V^8I^17K^21-[4-22]-TAmel] | 1.2 µM | 0% | 21 µM | 14 µM | 28 µM | – | – | – | – | – | – | – | –
2 | CC(C)C[C@H](NC(=O)[C@H](CC(C)C)NC(=O)[C@@H](CC(C)C)NC(=O)[C@@H](CC(C)C)NC(=O)[C@H](CC(C)C)NC(=O)[C@@H](N)CCCCN)C(=O)N[C@@H](CCCCN)C(=O)N[C@H](CC(C)C)C(=O)N[C@@H](CC(C)C)C(=O)N[C@H](CC(C)C)C(=O)N[C@@H](CC(C)C)C(=O)N[C@@H](CCCCN)C(N)=O [Peptide 22, [D]-L^3,4,8,10-K3L9] (H-KL[dL][dL]LLK[dL]L[dL]LK-NH2) | 0.7 µM | – | 9 µM | 20 µM | – | > 60 fold | 58% | 125 µM | 1.1 µM | – | – | – | –
3 | CC(C)C[C@H](NC(=O)[C@H](CCCCN)NC(=O)[C@@H](CC(C)C)NC(=O)[C@@H](CC(C)C)NC(=O)[C@H](CC(C)C)NC(=O)[C@@H](N)CCCCN)C(=O)N[C@@H](CCCCN)C(=O)N[C@H](CC(C)C)C(=O)N[C@@H](CCCCN)C(=O)N[C@H](CC(C)C)C(=O)N[C@@H](CC(C)C)C(=O)N[C@@H](CCCCN)C(N)=O [Peptide 24, [D]-L^3,4,8,10-K5L7] (H-KL[dL][dL]KLK[dL]K[dL]LK-NH2) | 0.25 µM | – | 7 µM | 20 µM | – | – | 0% | 10 µM | 2 µM | 10 µM | 10 µM | 7 µM | 7 µM
4 | CC(C)C[C@H](NC(=O)[C@H](CCCCN)NC(=O)[C@@H](CC(C)C)NC(=O)[C@@H](CC(C)C)NC(=O)[C@H](CCCCN)NC(=O)[C@@H](N)CCCCN)C(=O)N[C@@H](CCCCN)C(=O)N[C@H](CC(C)C)C(=O)N[C@@H](CCCCN)C(=O)N[C@H](CC(C)C)C(=O)N[C@@H](CCCCN)C(=O)N[C@@H](CCCCN)C(N)=O [Peptide 25, [D]-L^3,4,8,10-K7L5] (H-KK[dL][dL]KLK[dL]K[dL]KK-NH2; N-terminus assumed) | 1 µM | – | 80 µM | 200 µM | – | – | 0% | >200 µM | 100 µM | – | – | – | –
